How the values were obtained:
Experiment in all cases: Fungicidal effect on infected agar nutrient media, colony diameter
Type in all cases: cell-based
Sclerotinia sclerotinia = conditions: 3rd day after treatment, untreated control 41.7
Procedure: (§1) Agar nutrient media (Diameter 70 MM, thickness 10 mm) infected by Sclerotonia sclerotinia suspension are treated with 20 EC formulations prepared according to Example 27 and comprising 1, 10, 100 and 1000 ppm, respectively of the active ingredient of the Formula I. The fungicidal effect of the compositions is evaluated on the 3rd day after treatment by measuring the diameter of the Fungi colonies.

Penicillium cyclopium = conditions: 7th day after treatment, untreated 26.5
Procedure: as §1
The series of measureents described in Example 35 is carried out except that the agar nutrient media are infected by a Penicillium cyclopium Fungi strain and the test is evaluated on the 7th day after treatment.

Alternaria tenuis = conditions: 5th day after treatment, untreated control 36.8
Procedure: as §1
The series of measurements according to Example 35 is carried out except that the agar nutrient media are infected by Alternaria Tenius and evaluation is accomplished on the 5th day after treatment.

SMILES | Diameter of colony (mm) (Sclerotinia sclerotinia; 1 ppm) | Diameter of colony (mm) (Sclerotinia sclerotinia; 10 ppm) | Diameter of colony (mm) (Sclerotinia sclerotinia; 100 ppm) | Diameter of colony (mm) (Sclerotinia sclerotinia; 1000 ppm) | Diameter of colony (mm) (Penicillium cyclopium; 1 ppm) | Diameter of colony (mm) (Penicillium cyclopium; 10 ppm) | Diameter of colony (mm) (Penicillium cyclopium; 100 ppm) | Diameter of colony (mm) (Penicillium cyclopium; 1000 ppm) | Diameter of colony (mm) (Alternaria tenuis; 1 ppm) | Diameter of colony (mm) (Alternaria tenuis; 10 ppm) | Diameter of colony (mm) (Alternaria tenuis; 100 ppm) | Diameter of colony (mm) (Alternaria tenuis; 1000 ppm)
CCCC(C)OP1(=S)OC(C)C(C)S1 (stereo not drawn) [Compound 66] | 34.8 | 28.8 | 4.0 | 0 | 25.0 | 18.6 | 7.5 | 0 | 34.5 | 24.4 | 7.0 | 0
CC(CBr)OP1(=S)OC(C)CS1 (stereo not drawn) [Compound 20] | 34.9 | 28.2 | 1.6 | 0 | 20.1 | 17.7 | 4.1 | 0 | 33.2 | 25.0 | 5.0 | 0
S=P1(OCCS)OCCS1 (stereo not drawn) [Compound 56] | 40.2 | 31.5 | 1.2 | 0 | 24.6 | 18.1 | 8.8 | 0 | 32.8 | 22.1 | 6.0 | 0
CC1COP(=S)(OCCI)S1 (stereo not drawn) [Compound 9, 2-(0-2'-iodoethyl)-2-thio-4-methyl-1,3,2-oxathiophospholane] | 39.2 | 27.6 | 3.9 | 0 | 23.2 | 15.8 | 5.7 | 0 | 30.6 | 24.6 | 8.9 | 0
CC1CSP(=S)(OCCBr)O1 (stereo not drawn) [Compound 5] | 35.4 | 29.2 | 1.7 | 0 | 20.1 | 19.5 | 7.8 | 0 | 34.9 | 22.3 | 7.9 | 0
CC(I)COP1(=S)OCCS1 (stereo not drawn) [Compound 15] | 34.3 | 30.3 | 1.4 | 0 | 19.1 | 15.5 | 5.8 | 0 | 35.9 | 21.1 | 5.5 | 0
CC(C)C(C)OP1(=S)OC(C)C(C)S1 (stereo not drawn) [Compound 54, 2-(0-1',2'-dimethyl-n-propyl)-2-thio-4,5-dimethyl1,3,2-oxathiophospholane] | 34.9 | 29.0 | 4.1 | 0 | 25.2 | 18.8 | 7.9 | 0 | 34.7 | 24.6 | 7.2 | 0
CC(Br)COP1(=S)OCCS1 (stereo not drawn) [Compound 14] | 38.1 | 28.1 | 0 | 0 | 18.2 | 17.6 | 7.9 | 0 | 31.3 | 21.3 | 5.7 | 0
